Test results published in US12371454B2, “Cyclic peptide compound having Kras inhibitory action” (priority 2019, dated 2025).
pIC50: −log10 of the molar value. Starred links: 1 amine or outer side, 2 acyl side, 3 side chain; linkers in the order of their positions; H or OH if unused. Positions of bridges follow the written chain, without caps; N, C: chain ends. Non-standard residues stand in square brackets, D forms with d. Residues, ends and D or L forms follow the SMILES beside them. *: point of attachment. hPhe(3-Cl-4-CF3) = N[C@@H](CCc1ccc(C(F)(F)F)c(Cl)c1)C(=O)O; NMePhe(4-CF3) = CN[C@@H](Cc1ccc(C(F)(F)F)cc1)C(=O)O; NMePhe(4-CN) = CN[C@@H](Cc1ccc(C#N)cc1)C(=O)O; NMePhe(3-Br) = CN[C@@H](Cc1cccc(Br)c1)C(=O)O; NMePhe(4-Cl) = CN[C@@H](Cc1ccc(Cl)cc1)C(=O)O; NMePhe(4-Me) = CN[C@@H](Cc1ccc(C)cc1)C(=O)O; X11 = CN([C@@H](CCc1cccnc1)C(=O)[*:2])[*:1]; NMeNle(6-CHF2) = CN[C@@H](CCCCC(F)F)C(=O)O; NMePhe(3-F) = CN[C@@H](Cc1cccc(F)c1)C(=O)O; NMedβ3hAla = C[C@H](CC(=O)[*:2])N(C)[*:1]; NMeGly(cPent) = CN[C@H](C(=O)O)C1CCCC1; NMeCha = CN[C@@H](CC1CCCCC1)C(=O)O; NMeChg = CN[C@H](C(=O)O)C1CCCCC1; NMeI = CC[C@H](C)[C@H](NC)C(=O)O; NMeD = CN[C@@H](CC(=O)O)C(=O)O; NMeL = CN[C@@H](CC(C)C)C(=O)O; NMeV = CN[C@H](C(=O)O)C(C)C; d(β3hA) = C[C@@H](N)CC(=O)O; NMeAbu = CC[C@H](NC)C(=O)O; Morpholide = C1CN(*)CCO1; NMeA = CN[C@@H](C)C(=O)O; Piperidide = C1CCN(*)CC1; Ac5c = NC1(C(=O)O)CCCC1; Aze = O=C(O)[C@@H]1CCN1; NEtG = CCNCC(=O)O; Sar = CNCC(=O)O

Experiments:
[1] = molecular target: T1, Kras and SOS1 (biotin-tagged human Kras loaded with GDP, His-tagged human SOS1) (Homo sapiens, UniProt P01116, G12D); test: Protein-protein interaction inhibition between Kras and SOS1 (KrasGl2D-SOS PPI) using AlphaScreen; assay type: binding; details: AlphaScreen; biotin-tagged human Kras loaded with GDP, His-tagged human SOS1; read-out: KRAS G12D-SOS PPI IC50
T1 construct: made in house; host or cells: E. coli (stated for Kras only)
T1 sequence (P01116 1-188 isoform P01116-2 G12D): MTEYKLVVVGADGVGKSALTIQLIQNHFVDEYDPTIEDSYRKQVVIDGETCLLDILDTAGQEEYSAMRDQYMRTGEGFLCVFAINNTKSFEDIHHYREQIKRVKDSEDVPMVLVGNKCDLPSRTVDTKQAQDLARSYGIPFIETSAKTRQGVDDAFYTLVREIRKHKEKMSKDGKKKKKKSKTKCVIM
In short: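 Binding between SOS1 and Kras is detected as bead-proximity luminescence: illuminate Ni-conjugated donors (680 nm), collect 520-620 nm emission from streptavidin-conjugated acceptors; Kras carries biotin and GDP loaded after purification, SOS1 carries a His tag.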

[2] = system: Human pancreatic cancer cell line AsPC-1; test: Measurement of AsPC-1 cell growth inhibition (AsPC-1 CGI); assay type: cell-based; details: 96 h
In short: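 AsPC-1 cells in 15% FBS RPMI-1640 were exposed to test compound for 96 hours at 37° C, with CellTiter-Glo as endpoint.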

CC[C@H](C)[C@@H]1NC(=O)[C@H](CC(C)C)N(C)C(=O)C[C@@H](C(=O)N2CCCCC2)N(C)C(=O)[C@H](C2CCCCC2)N(C)C(=O)C2(CCCC2)NC(=O)[C@@H]2CCCN2C(=O)[C@H](CCc2ccc(C(F)(F)F)c(Cl)c2)NC(=O)CN(C)C(=O)[C@H](CCCCC(F)F)N(C)C(=O)CN(C)C(=O)CN(C)C1=O [Compound 631] ([NMeL]I[Sar][Sar][NMeNle(6-CHF2)][Sar][hPhe(3-Cl-4-CF3)]P[Ac5c][NMeChg][NMeD]-Piperidide; lactam N-11)
pIC50 [1]: 9.00 | pIC50 [2]: 6.30 to 7.00

CC[C@H](C)[C@@H]1NC(=O)[C@H](CC)N(C)C(=O)C[C@@H](C(=O)N2CCOCC2)N(C)C(=O)[C@H](C2CCCCC2)N(C)C(=O)C2(CCCC2)NC(=O)[C@@H]2CCCN2C(=O)[C@H](CCc2ccc(C(F)(F)F)c(Cl)c2)NC(=O)CN(C)C(=O)[C@H](Cc2ccc(C(F)(F)F)cc2)N(C)C(=O)CN(C)C(=O)CN(C)C1=O [Compound 1884] ([NMeAbu]I[Sar][Sar][NMePhe(4-CF3)][Sar][hPhe(3-Cl-4-CF3)]P[Ac5c][NMeChg][NMeD]-Morpholide; lactam N-11)
pIC50 [1]: 9.39 | pIC50 [2]: 7.30 to 7.70

CC[C@H](C)[C@@H]1NC(=O)[C@H](CC(C)C)N(C)C(=O)C[C@@H](C(=O)N(C)C)N(C)C(=O)[C@H]([C@@H](C)CC)N(C)C(=O)C2(CCCC2)NC(=O)[C@H](Cc2cccc(F)c2)N(C)C(=O)[C@H](CCc2ccc(C(F)(F)F)c(Cl)c2)NC(=O)CN(C)C(=O)[C@H](Cc2ccc(C)cc2)N(C)C(=O)[C@@H]2CCN2C(=O)[C@H](C)N(C)C1=O [Compound 1000] ([NMeL]I[NMeA][Aze][NMePhe(4-Me)][Sar][hPhe(3-Cl-4-CF3)][NMePhe(3-F)][Ac5c][NMeI][NMeD]-NMe2; lactam N-11)
pIC50 [1]: 8.59 | pIC50 [2]: 7.30 to 7.70

CC[C@H](C)[C@@H]1NC(=O)[C@H](CC(C)C)N(C)C(=O)C[C@@H](C(=O)N(C)C)N(C)C(=O)[C@H]([C@@H](C)CC)N(C)C(=O)C2(CCCC2)NC(=O)[C@H](Cc2ccc(Cl)cc2)N(C)C(=O)[C@H](CCc2ccc(C(F)(F)F)c(Cl)c2)NC(=O)CN(C)C(=O)[C@H](Cc2ccc(C)cc2)N(C)C(=O)[C@@H]2CCN2C(=O)[C@H](C)N(C)C1=O [Compound 838] ([NMeL]I[NMeA][Aze][NMePhe(4-Me)][Sar][hPhe(3-Cl-4-CF3)][NMePhe(4-Cl)][Ac5c][NMeI][NMeD]-NMe2; lactam N-11)
pIC50 [1]: 8.00 | pIC50 [2]: 6.30 to 7.00

CC[C@H](C)[C@@H]1NC(=O)[C@H](CC(C)C)N(C)C(=O)C[C@@H](C)N(C)C(=O)[C@H](C(C)C)N(C)C(=O)C2(CCCC2)NC(=O)[C@@H]2CCCN2C(=O)[C@H](CCc2ccc(C(F)(F)F)c(Cl)c2)NC(=O)CN(C)C(=O)[C@H](Cc2ccc(C#N)cc2)N(C)C(=O)CN(C)C(=O)CN(C)C1=O [Compound 888] (cyclo([Ac5c][NMeV][NMedβ3hAla][NMeL]I[Sar][Sar][NMePhe(4-CN)][Sar][hPhe(3-Cl-4-CF3)]P))
pIC50 [1]: 8.41 | pIC50 [2]: 6.30 to 7.00

CC[C@H](C)[C@@H]1NC(=O)[C@H](CC(C)C)N(C)C(=O)C[C@@H](C)N(C)C(=O)[C@H](C(C)C)N(C)C(=O)C2(CCCC2)NC(=O)[C@@H]2CCCN2C(=O)[C@H](CCc2ccc(C(F)(F)F)c(Cl)c2)NC(=O)CN(C)C(=O)[C@H](Cc2cccc(Br)c2)N(C)C(=O)CN(C)C(=O)CN(C)C1=O [Compound 1597] (cyclo([Ac5c][NMeV][NMedβ3hAla][NMeL]I[Sar][Sar][NMePhe(3-Br)][Sar][hPhe(3-Cl-4-CF3)]P))
pIC50 [1]: 7.96 | pIC50 [2]: 7.00 to 7.30

CC[C@H](C)[C@@H]1NC(=O)[C@H](CC(C)C)N(C)C(=O)C[C@@H](C(=O)N2CCCCC2)N(C)C(=O)[C@H](C(C)C)N(C)C(=O)C2(CCCC2)NC(=O)[C@@H]2CCCN2C(=O)[C@H](CCc2ccc(C(F)(F)F)c(Cl)c2)NC(=O)CN(C)C(=O)[C@H](C2CCCCC2)N(C)C(=O)[C@@H]2CCN2C(=O)[C@H](C)N(C)C1=O [Compound 526] ([NMeL]I[NMeA][Aze][NMeChg][Sar][hPhe(3-Cl-4-CF3)]P[Ac5c][NMeV][NMeD]-Piperidide; lactam N-11)
pIC50 [1]: 8.18 | pIC50 [2]: 6.30 to 7.00

CC[C@H](C)[C@@H]1NC(=O)[C@H](CC(C)C)N(C)C(=O)C[C@@H](C(=O)N(C)C)N(C)C(=O)[C@H](C2CCCC2)N(C)C(=O)C2(CCCC2)NC(=O)[C@H](CCc2cccnc2)N(C)C(=O)[C@H](CCc2ccc(C(F)(F)F)c(Cl)c2)NC(=O)CN(C)C(=O)[C@H](CC2CCCCC2)N(C)C(=O)[C@@H]2CCN2C(=O)[C@H](C)N(C)C1=O [Compound 1892] ([NMeL]I[NMeA][Aze][NMeCha][Sar][hPhe(3-Cl-4-CF3)][X11][Ac5c][NMeGly(cPent)][NMeD]-NMe2; lactam N-11)
pIC50 [1]: 8.82 | pIC50 [2]: 7.00 to 7.30

CC[C@H](C)[C@@H]1NC(=O)[C@H](CC(C)C)N(C)C(=O)C[C@@H](C)NC(=O)[C@H](C(C)C)N(C)C(=O)C2(CCCC2)NC(=O)[C@@H]2CCCN2C(=O)[C@H](CCc2ccc(C(F)(F)F)c(Cl)c2)NC(=O)CN(CC)C(=O)[C@H](CC2CCCCC2)N(C)C(=O)CN(C)C(=O)CN(C)C1=O [Compound 395] (cyclo([Ac5c][NMeV][d(β3hA)][NMeL]I[Sar][Sar][NMeCha][NEtG][hPhe(3-Cl-4-CF3)]P))
pIC50 [1]: 7.33 | pIC50 [2]: 6.30 to 7.00
